These results are taken from article PMC11606874, “Structural and in vitro anticancer properties of the kaempferol–lactoferrin complex” (Food Science & Nutrition, 2024).

The assay addresses T1, lactoferrin (Bos taurus, UniProt P24627).
T1 construct: gene LTF
As to the kind of experiment: intrinsic fluorescence quenching titration (Stern-Volmer and double-logarithmic Ka at […] K), synchronous fluorescence, UV-vis difference spectra. The assay is classed as binding. To be noted: read-out: K a (L mol^-1) (converted).

SMILES strings stand for the structures.

T1 sequence (P24627 20-708): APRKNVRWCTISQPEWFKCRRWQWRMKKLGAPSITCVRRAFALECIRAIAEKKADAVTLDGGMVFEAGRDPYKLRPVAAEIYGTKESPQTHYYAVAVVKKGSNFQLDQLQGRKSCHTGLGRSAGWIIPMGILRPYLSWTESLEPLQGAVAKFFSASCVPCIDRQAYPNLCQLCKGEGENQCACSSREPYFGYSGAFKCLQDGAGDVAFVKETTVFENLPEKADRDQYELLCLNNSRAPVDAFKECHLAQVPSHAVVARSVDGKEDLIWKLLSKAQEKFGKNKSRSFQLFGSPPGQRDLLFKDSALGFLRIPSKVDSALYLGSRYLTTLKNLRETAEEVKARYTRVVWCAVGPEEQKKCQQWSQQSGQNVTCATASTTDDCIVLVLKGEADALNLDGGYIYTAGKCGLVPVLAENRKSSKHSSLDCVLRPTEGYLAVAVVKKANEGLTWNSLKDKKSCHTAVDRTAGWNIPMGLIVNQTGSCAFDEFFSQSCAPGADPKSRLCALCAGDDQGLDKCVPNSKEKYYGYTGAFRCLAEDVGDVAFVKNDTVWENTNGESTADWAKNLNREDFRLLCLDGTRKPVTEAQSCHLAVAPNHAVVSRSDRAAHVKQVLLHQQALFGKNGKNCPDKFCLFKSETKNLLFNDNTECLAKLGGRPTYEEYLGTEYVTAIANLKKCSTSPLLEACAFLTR

As for `O=c1c(O)c(-c2ccc(O)cc2)oc2cc(O)cc(O)c12` [KAE, kaempferol], the Kd is 43.3 µM.
